In patent US10758511B2, “Stable analogs of CYP450 lipid metabolites and inhibitors of soluble epoxide hydrolase” (Massachusetts Eye and Ear Infirmary, priority 2015, dated 2020):
In brackets after ≈: the same amount, converted by molar mass. Marks after values point to notes of the source that are not given here.

Columns and labels:
[1] = test system: peripheral blood leukocytes (PBLs); experiment: Autoperfused microflow chamber assay, leukocyte rolling velocity; assay type: in vivo, mouse; settings: chamber coated with ICAM-1 and P-selectin, 50 μg/kg/day i.p., day 3 after CNV induction
Protocol: A combination of intercellular adhesion molecule 1 (ICAM-1) and P-selectin (R&D Systems), each at a concentration of 5 μg/mL, was used to coat translucent microchambers (0.4×0.04×50 mm, VitroCom) overnight at 4° C. Biocompatible polyester tubing (PE10; Becton Dickinson) was attached to both ends of each microchamber, and the apparatus was subsequently incubated for 1 hour with 0.1% BSA (Sigma-Aldrich) in order to prevent nonspecific leukocyte interaction with the inner surface of the apparatus. The left jugular vein and right carotid artery in an anesthetized mouse were surgically connected to the free ends of both tubes, thus allowing blood to flow from the right carotid artery and into the microchamber (via the inlet tube), and then into the left jugular vein (via the outlet tube) for recirculation. Blood flow rate through the microchamber was controlled via a screw valve on the inlet tube that could change the tube diameter. For continuous blood pressure measurements, three-way connectors were used to embed microtransducers (Harvard Apparatus) before and after the microchamber. Digitizing the analog output from these microtransducers required an A/D converter (ML785 PowerLab/8SP; ADInstruments) linked to a computer running CHART V7 software (ADInstruments). […] A fixed-stage intravital microscope (Leica) with a 63× objective and a monochromic camera (DFC 360 FX; Leica) were used to observe and record leukocyte rolling along immobilized adhesion molecules. Recordings lasted at least 30 s and incorporated ten different fields of view. Using ImageJ software, leukocyte rolling velocity was calculated based on individual cell displacement along the surface of the chamber over time (i.e., Δd/Δt). Flux was calculated as the mean number of leukocytes interacting with the chamber surface per field of view (i.e., average of 10 independent fields of view).
Autoperfused Microflow Chamber assay was used to assess the impact of 17,18-EEQ and 19,20-EDP on systemic leukocyte recruitment during CNV development. The rolling velocity of peripheral blood leukocytes (PBLs) in the circulating blood was measured 3 days post CNV induction, as this reflects the peak of immune cell infiltration in this model.

C57BL/6 mice = experiment: Laser-induced CNV model (flat-mount, SD-OCT, fluorescein angiography); assay type: in vivo, mouse; settings: for CNV size or severity compared to base line controls: EETs once a day after laser photocoagulation
Text: J Med Chem 54(12):4109-4118).

Rat sEH = molecular target: T1, Rat sEH (Rattus norvegicus, UniProt P80299); experiment: sEH inhibition (IC50), fluorescent substrate CMNPC; assay type: biochemical; settings: CMNPC as a substrate; ureas found in Brassicales
T1 sequence (P80299 1-554): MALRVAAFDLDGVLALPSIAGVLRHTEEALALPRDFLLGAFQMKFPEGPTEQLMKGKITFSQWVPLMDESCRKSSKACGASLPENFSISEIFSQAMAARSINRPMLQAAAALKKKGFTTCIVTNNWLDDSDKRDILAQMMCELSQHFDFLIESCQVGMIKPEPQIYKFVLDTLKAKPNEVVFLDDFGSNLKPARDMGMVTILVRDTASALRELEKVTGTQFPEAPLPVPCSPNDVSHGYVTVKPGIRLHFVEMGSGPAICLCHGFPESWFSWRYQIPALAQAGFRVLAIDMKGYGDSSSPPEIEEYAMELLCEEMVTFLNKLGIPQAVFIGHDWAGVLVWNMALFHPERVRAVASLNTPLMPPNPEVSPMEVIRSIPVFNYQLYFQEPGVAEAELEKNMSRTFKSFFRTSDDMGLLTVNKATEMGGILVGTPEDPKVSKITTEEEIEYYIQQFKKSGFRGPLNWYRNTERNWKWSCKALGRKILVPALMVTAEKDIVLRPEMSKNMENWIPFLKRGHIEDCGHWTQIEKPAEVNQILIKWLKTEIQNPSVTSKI

[2] = Solubility in sodium phosphate buffer (pH7.4); assay type: physicochemical; settings: pH 7.4, aqueous buffer, Mean ± SD (n = 3)
[3] = Formulations of selected inhibitors of sEH (mg/mL); assay type: physicochemical
[4] = sodium phosphate buffer (pH7.4); data from Kitamura et al., (2015); cited from earlier work
Human sEH = molecular target: T2, Human sEH (Homo sapiens, UniProt P34913); experiment: sEH inhibition (IC50), fluorescent substrate CMNPC; assay type: biochemical; settings: CMNPC as a substrate; ureas found in Brassicales
T2 sequence (P34913 1-555): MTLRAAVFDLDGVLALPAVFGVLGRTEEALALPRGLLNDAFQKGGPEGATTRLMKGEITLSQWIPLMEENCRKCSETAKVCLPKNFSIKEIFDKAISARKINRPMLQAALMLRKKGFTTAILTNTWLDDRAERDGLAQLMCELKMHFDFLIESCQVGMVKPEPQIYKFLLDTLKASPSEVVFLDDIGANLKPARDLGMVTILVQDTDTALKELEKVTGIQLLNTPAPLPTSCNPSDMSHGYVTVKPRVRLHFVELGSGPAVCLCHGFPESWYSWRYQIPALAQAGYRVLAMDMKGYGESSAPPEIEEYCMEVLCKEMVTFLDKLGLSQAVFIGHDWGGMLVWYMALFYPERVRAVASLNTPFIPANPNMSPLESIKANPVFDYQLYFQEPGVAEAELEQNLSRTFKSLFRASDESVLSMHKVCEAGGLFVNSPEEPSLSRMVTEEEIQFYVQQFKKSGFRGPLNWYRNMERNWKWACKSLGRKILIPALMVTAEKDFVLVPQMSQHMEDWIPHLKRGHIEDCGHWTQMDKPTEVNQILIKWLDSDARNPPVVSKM

E-selectin = experiment: Real-time PCR of E-selectin mRNA in laser-captured CNV lesions; assay type: in vivo, mouse; settings: 50 μg/kg/day i.p., 7 days post CNV induction
Protocol: Immediately after enucleation, mouse eyes were placed in optimum cutting temperature (OCT) compound and swiftly frozen. Under RNase-free conditions, eyes were cryosectioned (10 μm thickness per section) and mounted on polyethylene naphthalate glass slides (Leica). After dehydrating with washes of 50, 75, and 100% ethanol, the slides were stained with isolectin B4 at a dilution of 1:50 in 1 mM CaCl2. Laser-capture microdissection (Leica LMD 7000 system) was used to isolate chorioretinal vessels in CNV lesions, which were then placed in RNA-stabilizing buffer (RNeasy Micro Kit; Qiagen). […] Real-time PCR was conducted on a StepOne real-time PCR System (Applied Biosystems) with mouse TaqMan expression assays for the following genes (Applied Biosystems): E-selectin (Mm00441278_m1), kam-1 (Mm00516023_m1), and β-actin (Mm00607939_s1). All data were normalized to β-actin cDNA.

[5] = C57BL/6 mice, 7 d after CNV induction
[6] = C57BL/6 mice, 50 μg/kg/day i.p. once a day, 7 d after CNV induction

CCC1OC1C/C=C\C/C=C\C/C=C\C/C=C\CCCC(=O)O (centres unmarked) [17,18-EEQ, 17,18-epoxyeicosatetraenoic acid]
rolling velocity of PBLs ([1]; PBS 0.94±0.06): 1.48±0.16 μm/s

CCCCCC1OC1C/C=C\C/C=C\C/C=C\CCCC(=O)O (centres unmarked) [14,15-EET, reference compound]
CNV size or severity compared to base line controls (C57BL/6 mice; [5]): do not affect | rolling velocity of PBLs ([1]; PBS 2.30±0.13): 1.41±0.11 μm/s

CCCCC/C=C\C/C=C\CC1OC1C/C=C\CCCC(=O)O (centres unmarked) [8,9-EET, reference compound]
CNV size or severity compared to base line controls (C57BL/6 mice; [5]): do not affect | rolling velocity of PBLs ([1]; PBS 2.30±0.13): 1.14±0.15 μm/s

COc1ccc(CNC(=O)NCc2ccccc2)cc1 [BMU]
IC50 (Rat sEH): 182 nM | solubility [2]: 9 ± 4 µM (≈ 2.43 µg/mL)

CC(C)C(=O)N1CCC(NC(=O)Nc2ccc(C(F)(F)F)cc2)CC1
Formulation (mg/mL) EtOH [3]: 20 mg/mL | Formulation (mg/mL) PEG400 [3]: 20 mg/mL | Formulation (mg/mL) Trioleate [3]: 0.625 mg/mL

COc1ccc(CNC(=O)NCc2ccc(OC)cc2)cc1 [MMU]
IC50 (Rat sEH): 218 nM | Solubility (μM) [4]: 11 ± 2^c μM

COc1cccc(CNC(=O)NCc2cccc(OC)c2)c1 [Compound 3]
IC50 (Rat sEH): 155 nM | IC50 (Human sEH): 222 nM | solubility [2]: 101 ± 37 µM (≈ 30.3 µg/mL)

CCC1OC1C/C=C\C/C=C\C/C=C\C/C=C\C/C=C\CCC(=O)O (centres unmarked) [19,20-EDP]
rolling velocity of PBLs ([1]; PBS 0.94±0.06): 1.44±0.12 μm/s

CCCCS(=O)(=O)N1CCC(NC(=O)Nc2ccc(C(F)(F)F)cc2)CC1
Formulation (mg/mL) EtOH [3]: 13 mg/mL | Formulation (mg/mL) PEG400 [3]: 13 mg/mL | Formulation (mg/mL) Trioleate [3]: 1.25 mg/mL

CCOCCOCCOCCCCCNC(=O)NC12CC3CC(CC(C3)C1)C2 [AEPU]
logP (physchem): 2.6

CNC(=O)C(=O)NCCCC/C=C\CCCCCCCCCC(=O)O [Compound C21, (Z)-16-(2-(methylamino)-2-oxoacetamido)hexadec-11-enoic acid]
CNV attenuation compared to EEQ administered alone (C57BL/6 mice; C21 intraperitoneally once a day for 7 days, FIGS. 20A-20C): did not show a significant difference | CNV size in choroidal flat mounts compared to control vehicle (C57BL/6 mice; [6]): significantly reduced | CNV size in cross-sectional SD-OCT compared to control vehicle (C57BL/6 mice; [6]): significantly reduced | vascular leakage in CNV lesions (fluorescein angiography) compared to control vehicle (C57BL/6 mice; [6]): significantly reduced

CCCCC/C=C\C[C@H]1O[C@H]1C/C=C\C/C=C\CCCC(=O)O [11,12-EET]
CNV size or severity compared to base line controls (C57BL/6 mice; [5]): do not affect | rolling velocity of PBLs ([1]; PBS 2.30±0.13): 1.41±0.45 μm/s | mRNA level of E-selectin in CNV lesions compared to PBS injected controls (E-selectin): significant increase

O=C(NCc1ccccc1)NCc1ccccc1 [Compound 1]
IC50 (Rat sEH): 385 nM | solubility [2]: 43 ± 5 µM (≈ 10.3 µg/mL)

O=C(Nc1ccc(C(F)(F)F)cc1)NC1CCC(Oc2ccc(C(=O)O)cc2)CC1 (centres unmarked)
Formulation (mg/mL) EtOH [3]: 20 mg/mL | Formulation (mg/mL) PEG400 [3]: 20 mg/mL | Formulation (mg/mL) Trioleate [3]: 0.625 mg/mL

COc1cccc(CNC(=O)NCc2ccccc2)c1 [Compound 2]
IC50 (Rat sEH): 308 nM | IC50 (Human sEH): 534 nM | solubility [2]: 77 ± 9 µM (≈ 20.8 µg/mL)
